# Where no end group is shown, it is not given here.
# System: EL-4 cells labeled with 51Cr and pulsed with the peptide Flu366-374
# Conditions: administered alone using the osmotic pump (100 µg peptide or 10^5 U IFN-α, subcutaneous, 3-day release); spleen 7 days after administration, 5 days re-stimulation; Fig. 1(A)
sequence,measurement,value
"ASNESMETM [peptide, Ala-Ser-Asn-Glu-Ser-Met-Glu-Thr-Met]",peptide-specific CTL induction (cytotoxic activity for peptide-pulsed EL-4 cells),no peptide-specific CTL was induced

# Reference: patent EP1074267B1, “Induction of antigen-specific T cells by interferon” (Dainippon Sumitomo Pharma Co., Ltd., priority 1999, dated 2001)
